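Interpolation was linear, between the two tested concentrations surrounding the appropriate level; five concentrations were tested over 48 hours in 96-well plates. The concentration for full growth arrest is given as TGI.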
Experiments:
Assay in all cases: NCI-60 cell line screen, 48 h
NCI-H23 lung = test system: NCI-H23 lung
K-562 leukemia = test system: K-562 leukemia
CCRF-CEM leukemia = test system: CCRF-CEM leukemia
SF-295 CNS = test system: SF-295 CNS
SW-620 colon = test system: SW-620 colon
NCI-H460 lung = test system: NCI-H460 lung
ACHN renal = test system: ACHN renal
NCI-H226 lung = test system: NCI-H226 lung
CAKI-1 renal = test system: CAKI-1 renal
MALME-3M melanoma = test system: MALME-3M melanoma
SN12C renal = test system: SN12C renal
OVCAR-3 ovarian = test system: OVCAR-3 ovarian
HCT-15 colon = test system: HCT-15 colon
786-0 renal = test system: 786-0 renal
M19-MEL melanoma = test system: M19-MEL melanoma
IGROV1 ovarian = test system: IGROV1 ovarian
HT29 colon = test system: HT29 colon
KM12 colon = test system: KM12 colon
MOLT-4 leukemia = test system: MOLT-4 leukemia
A549 NSCLC = test system: A549 NSCLC
OVCAR-8 ovarian = test system: OVCAR-8 ovarian
HCC-2998 colon = test system: HCC-2998 colon
LXFL 529 NSCLC = test system: LXFL 529 NSCLC
NCI-H522 lung = test system: NCI-H522 lung
U251 CNS = test system: U251 CNS
SK-MEL-2 melanoma = test system: SK-MEL-2 melanoma
SNB-19 CNS = test system: SNB-19 CNS
UACC-62 melanoma = test system: UACC-62 melanoma
A498 renal = test system: A498 renal
SF-539 CNS = test system: SF-539 CNS
LOX IMVI melanoma = test system: LOX IMVI melanoma
DMS 273 small cell lung = test system: DMS 273 small cell lung
M14 melanoma = test system: M14 melanoma
KM20L2 colon = test system: KM20L2 colon
SF-268 CNS = test system: SF-268 CNS
XF 498 CNS = test system: XF 498 CNS
UACC-257 melanoma = test system: UACC-257 melanoma
DLD-1 colon = test system: DLD-1 colon
HOP-62 NSCLC = test system: HOP-62 NSCLC
RPMI-8226 leukemia = test system: RPMI-8226 leukemia
EKVX NSCLC = test system: EKVX NSCLC
SNB-75 CNS = test system: SNB-75 CNS
COLO 205 colon = test system: COLO 205 colon
DMS 114 small cell lung = test system: DMS 114 small cell lung
HCT-116 colon = test system: HCT-116 colon
OVCAR-4 ovarian = test system: OVCAR-4 ovarian
SR leukemia = test system: SR leukemia
HL-60(TB) leukemia = test system: HL-60(TB) leukemia
SK-MEL-5 melanoma = test system: SK-MEL-5 melanoma
UO-31 renal = test system: UO-31 renal
RXF-631 renal = test system: RXF-631 renal
HOP-92 NSCLC = test system: HOP-92 NSCLC
SK-OV-3 ovarian = test system: SK-OV-3 ovarian
SNB-78 CNS = test system: SNB-78 CNS

Q: How did the TGI (NCI-H23 lung) turn out when `COc1cc(C(C)O)c[n+](CCC2CNc3ccccc32)c1` (stereo not drawn) was run?
A: Its TGI is > 100 µM.

Q: What about the TGI (K-562 leukemia) of the same compound?
A: The TGI was > 100 µM.

Q: And the TGI (CCRF-CEM leukemia)?
A: The TGI was > 100 µM.

Q: What about the TGI (SF-295 CNS) of the same compound?
A: The TGI was > 100 µM.

Q: What about the TGI (SW-620 colon) of the same compound?
A: The TGI was > 100 µM.

Q: And the TGI (NCI-H460 lung)?
A: Its TGI is > 100 µM.

Q: And the TGI (ACHN renal)?
A: The TGI was > 100 µM.

Q: What about the TGI (NCI-H226 lung) of the same compound?
A: Its TGI is > 100 µM.

Q: What about the TGI (CAKI-1 renal) of the same compound?
A: Its TGI is > 100 µM.

Q: What about the TGI (MALME-3M melanoma) of the same compound?
A: The TGI was > 100 µM.

Q: And the TGI (SN12C renal)?
A: Its TGI is > 100 µM.

Q: And the TGI (OVCAR-3 ovarian)?
A: The TGI was > 100 µM.

Q: And the TGI (HCT-15 colon)?
A: Its TGI is > 100 µM.

Q: What about the TGI (786-0 renal) of the same compound?
A: Its TGI is > 100 µM.

Q: And the TGI (M19-MEL melanoma)?
A: The TGI was > 100 µM.

Q: And the TGI (IGROV1 ovarian)?
A: Its TGI is > 100 µM.

Q: What about the TGI (HT29 colon) of the same compound?
A: Its TGI is > 100 µM.

Q: And the TGI (KM12 colon)?
A: Its TGI is > 100 µM.

Q: And the TGI (MOLT-4 leukemia)?
A: Its TGI is > 100 µM.

Q: What about the TGI (A549 NSCLC) of the same compound?
A: Its TGI is > 100 µM.

Q: And the TGI (OVCAR-8 ovarian)?
A: The TGI was > 100 µM.

Q: And the TGI (HCC-2998 colon)?
A: The TGI was > 100 µM.

Q: What about the TGI (LXFL 529 NSCLC) of the same compound?
A: The TGI was > 100 µM.

Q: What about the TGI (NCI-H522 lung) of the same compound?
A: Its TGI is > 100 µM.

Q: And the TGI (U251 CNS)?
A: The TGI was > 100 µM.

Q: What about the TGI (SK-MEL-2 melanoma) of the same compound?
A: Its TGI is > 100 µM.

Q: And the TGI (SNB-19 CNS)?
A: The TGI was > 100 µM.

Q: And the TGI (UACC-62 melanoma)?
A: Its TGI is > 100 µM.

Q: What about the TGI (A498 renal) of the same compound?
A: The TGI was > 100 µM.

Q: And the TGI (SF-539 CNS)?
A: The TGI was > 100 µM.

Q: And the TGI (LOX IMVI melanoma)?
A: Its TGI is > 100 µM.

Q: What about the TGI (DMS 273 small cell lung) of the same compound?
A: Its TGI is > 100 µM.

Q: And the TGI (M14 melanoma)?
A: Its TGI is > 100 µM.

Q: And the TGI (KM20L2 colon)?
A: The TGI was > 100 µM.

Q: And the TGI (SF-268 CNS)?
A: The TGI was 93 µM.

Q: And the TGI (XF 498 CNS)?
A: The TGI was > 100 µM.

Q: And the TGI (UACC-257 melanoma)?
A: Its TGI is > 100 µM.

Q: What about the TGI (DLD-1 colon) of the same compound?
A: The TGI was > 100 µM.

Q: And the TGI (HOP-62 NSCLC)?
A: Its TGI is > 100 µM.

Q: What about the TGI (RPMI-8226 leukemia) of the same compound?
A: The TGI was > 100 µM.

Q: And the TGI (EKVX NSCLC)?
A: The TGI was > 100 µM.

Q: And the TGI (SNB-75 CNS)?
A: Its TGI is > 100 µM.

Q: What about the TGI (COLO 205 colon) of the same compound?
A: The TGI was > 100 µM.

Q: And the TGI (DMS 114 small cell lung)?
A: The TGI was > 100 µM.

Q: What about the TGI (HCT-116 colon) of the same compound?
A: Its TGI is > 100 µM.

Q: What about the TGI (OVCAR-4 ovarian) of the same compound?
A: The TGI was > 100 µM.

Q: And the TGI (SR leukemia)?
A: Its TGI is > 100 µM.

Q: And the TGI (HL-60(TB) leukemia)?
A: Its TGI is > 100 µM.

Q: And the TGI (SK-MEL-5 melanoma)?
A: Its TGI is > 100 µM.

Q: What about the TGI (UO-31 renal) of the same compound?
A: The TGI was > 100 µM.

Q: Which results are given for `CC(C)N(C(=O)C12C3C4C1C1C2C3C41C(N)=O)C(C)C` (stereo not drawn)?
A: TGI (RXF-631 renal): > 100 µM; TGI (K-562 leukemia): > 100 µM; TGI (CCRF-CEM leukemia): > 100 µM; TGI (SF-295 CNS): > 100 µM; TGI (SW-620 colon): > 100 µM; TGI (ACHN renal): > 100 µM; TGI (CAKI-1 renal): > 100 µM; TGI (MALME-3M melanoma): > 100 µM; TGI (SN12C renal): > 100 µM; TGI (HOP-92 NSCLC): > 100 µM; TGI (OVCAR-3 ovarian): > 100 µM; TGI (HCT-15 colon): > 100 µM; TGI (786-0 renal): > 100 µM; TGI (M19-MEL melanoma): > 100 µM; TGI (IGROV1 ovarian): > 100 µM; TGI (MOLT-4 leukemia): > 100 µM; TGI (A549 NSCLC): > 100 µM; TGI (OVCAR-8 ovarian): > 100 µM; TGI (HCC-2998 colon): > 100 µM; TGI (SK-OV-3 ovarian): > 100 µM; TGI (LXFL 529 NSCLC): > 100 µM; TGI (NCI-H522 lung): > 100 µM; TGI (U251 CNS): > 100 µM; TGI (SNB-19 CNS): > 100 µM; TGI (A498 renal): > 100 µM; TGI (SF-539 CNS): > 100 µM; TGI (DMS 273 small cell lung): > 100 µM; TGI (M14 melanoma): > 100 µM; TGI (KM20L2 colon): > 100 µM; TGI (SF-268 CNS): > 100 µM; TGI (HOP-62 NSCLC): > 100 µM; TGI (EKVX NSCLC): > 100 µM; TGI (COLO 205 colon): > 100 µM; TGI (DMS 114 small cell lung): > 100 µM; TGI (SR leukemia): > 100 µM; TGI (SNB-78 CNS): > 100 µM; TGI (SK-MEL-5 melanoma): > 100 µM; TGI (UO-31 renal): > 100 µM

From PubChem BioAssay (NCI)
